Read-outs that look alike come from different tables or passages of the source.
Tests used:
GAL4-CREB [1] = test: Luciferase reporter assay in RCLH-CREB stable cells treated with extracellular stimuli; type: cell-based, human; details: 5 hours
GAL4-CREB [2] = type: cell-based, human; details: transient assays, 10 ug/ml; data not shown

Compound	stimulation of luciferase expression (GAL4-CREB [1]; in the presence of 100 uM forskolin)	effect on luciferase expression (GAL4-CREB [1]; 50 ug/ml)	stimulation of luciferase expression (GAL4-CREB [2]) [fold]
CCCCCCCCCCCCCC(=O)O[C@@H]1[C@@H](C)[C@@]2(O)[C@@H](C=C(CO)C[C@]3(O)C(=O)C(C)=C[C@@H]23)[C@@H]2C(C)(C)[C@]12OC(C)=O [PMA, phorbol-12-myristate-13-acetate]	approximately 70 fold		
adenylate cyclase toxin [AC toxin]		approximately 7 fold	13
